Results from the supplement of paper PMC10307832.

Each cell line was assayed with C(C(=O)C(=O)O)Br [Bromopyruvate] + CS(=O)(=O)N1CCN(Cc2cc3nc(-c4cccc5[nH]ncc45)nc(N4CCOCC4)c3s2)CC1 [Pictilisib] (partner 1 µM) (assay: relative viability (nuclei count vs DMSO), 5 days (fraction); higher = more cells survive). Conditions: first compound 1 µM.
Outline: (§1)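 Five library-drug doses in √10 steps were combined with a fixed anchor-drug dose, or a single drug was given alone, by pin tool to lung cancer cell lines in 1536-well plates the day after seeding. Nuclei were stained and counted after 5 days. Relative viability is the nuclei count in treated wells over that in vehicle wells, taken as the median of duplicate plates.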

Cell Line	relative viability
NCI-H1299	0.779
NCI-H650	0.804
CAL-12T	0.431
NCI-H1651	0.516
EPLC-272H	0.32
NCI-H23	0.448
NCI-H1792	0.306
NCI-H1355	0.43
NCI-H322M	0.464
NCI-H1437	0.464
NCI-H1755	0.484
NCI-H2085	0.429
HCC-15	0.719
NCI-H1793	0.391
PC-3 [JPC-3]	0.775
EKVX	0.412

Same assay, conditions: first compound 3.162 µM

Cell Line	relative viability
NCI-H1299	0.811
NCI-H650	0.778
CAL-12T	0.394
NCI-H1651	0.539
EPLC-272H	0.363
NCI-H23	0.535
NCI-H1792	0.29
NCI-H1355	0.438
NCI-H322M	0.536
NCI-H1437	0.502
NCI-H1755	0.512
NCI-H2085	0.426
HCC-15	0.719
NCI-H1793	0.32
PC-3 [JPC-3]	0.724
EKVX	0.437

Same assay, conditions: first compound 10 µM

Cell Line	relative viability
NCI-H1299	0.809
NCI-H650	0.972
CAL-12T	0.534
NCI-H1651	0.69
EPLC-272H	0.266
NCI-H23	0.433
NCI-H1792	0.328
NCI-H1355	0.466
NCI-H322M	0.502
NCI-H1437	0.47
NCI-H1755	0.448
NCI-H2085	0.463
HCC-15	0.808
NCI-H1793	0.305
PC-3 [JPC-3]	0.731
EKVX	0.444

Same assay, conditions: first compound 31.62 µM

Cell Line	relative viability
NCI-H1299	0.664
NCI-H650	0.92
CAL-12T	0.309
NCI-H1651	0.594
EPLC-272H	0.323
NCI-H23	0.502
NCI-H1792	0.317
NCI-H1355	0.577
NCI-H322M	0.529
NCI-H1437	0.413
NCI-H1755	0.467
NCI-H2085	0.437
HCC-15	0.732
NCI-H1793	0.272
PC-3 [JPC-3]	0.694
EKVX	0.458

Same assay, conditions: first compound 100 µM

Cell Line	relative viability
NCI-H1299	0.799
NCI-H650	1.01
CAL-12T	0.569
NCI-H1651	0.549
EPLC-272H	0.296
NCI-H23	0.409
NCI-H1792	0.212
NCI-H1355	0.422
NCI-H322M	0.56
NCI-H1437	0.496
NCI-H1755	0.456
NCI-H2085	0.498
HCC-15	0.7
NCI-H1793	0.237
PC-3 [JPC-3]	0.733
EKVX	0.472

What follows are cell lines tested with CC(O)(CS(=O)(=O)c1ccc(F)cc1)C(=O)Nc1ccc(C#N)c(C(F)(F)F)c1 [Bicalutamide] + CS(=O)(=O)CCNCc1ccc(-c2ccc3ncnc(Nc4ccc(OCc5cccc(F)c5)c(Cl)c4)c3c2)o1 [Lapatinib] (partner 2 µM) in the same assay as above. Conditions: first compound 0.08 µM.
Outline: as §1

Cell Line	relative viability
NCI-H1299	0.92
NCI-H650	1.04
CAL-12T	0.809
NCI-H1651	0.731
EPLC-272H	0.788
NCI-H23	1.07
NCI-H1792	0.958
NCI-H1355	1
NCI-H322M	0.576
NCI-H1437	0.826
NCI-H1755	1.03
NCI-H2085	0.776
HCC-15	0.797
NCI-H1793	0.637
PC-3 [JPC-3]	0.476
EKVX	0.194

Same assay, conditions: first compound 0.253 µM

Cell Line	relative viability
NCI-H1299	0.966
NCI-H650	1.07
CAL-12T	0.661
NCI-H1651	0.744
EPLC-272H	0.771
NCI-H23	0.987
NCI-H1792	0.858
NCI-H1355	0.902
NCI-H322M	0.602
NCI-H1437	0.736
NCI-H1755	1.06
NCI-H2085	0.739
HCC-15	0.813
NCI-H1793	0.645
PC-3 [JPC-3]	0.421
EKVX	0.247

Same assay, conditions: first compound 0.8 µM

Cell Line	relative viability
NCI-H1299	0.971
NCI-H650	1.07
CAL-12T	0.891
NCI-H1651	1.07
EPLC-272H	0.92
NCI-H23	1.38
NCI-H1792	1.03
NCI-H1355	0.974
NCI-H322M	0.664
NCI-H1437	1.01
NCI-H1755	1.05
NCI-H2085	0.839
HCC-15	0.966
NCI-H1793	1.04
PC-3 [JPC-3]	0.456
EKVX	0.192

Same assay, conditions: first compound 2.53 µM

Cell Line	relative viability
NCI-H1299	0.929
NCI-H650	0.644
CAL-12T	0.581
NCI-H1651	0.788
EPLC-272H	0.875
NCI-H23	0.843
NCI-H1792	0.91
NCI-H1355	1.03
NCI-H322M	0.572
NCI-H1437	0.711
NCI-H1755	0.928
NCI-H2085	0.704
HCC-15	0.875
NCI-H1793	0.832
PC-3 [JPC-3]	0.476
EKVX	0.207
